In patent US20250034201A1, “PRODRUGS OF GANAXOLONE” (priority 2022, published 2025):

Columns and labels:
in vitro [1] = assay type: in vitro ADME, human
Procedure: (§1) For several compounds only human liver microsomal stability was tested. […] The microsomal assays were carried out with and without the addition of NADPH at a final concentration of 1 mM. For negative control samples, NADPH reagent was not added. […] Note that compounds undergo only Phase I metabolism in liver microsomes.

[2] = Rat liver microsomal stability; assay type: in vitro ADME
Procedure: as §1
CLint=the intrinsic hepatic clearance (uL/min/mg), where CLint is equal to 0.693/(t1/2×Cmp)

[3] = Stability in simulated intestinal fluid (SIF); assay type: in vitro ADME; settings: for half-life: 2 μg/mL, read-out: SIF t1/2
Procedure: (§2) The stability of exemplary compounds in simulated gastric fluid (SGF) and simulated intestinal fluid (SIF) was tested according to the following protocol.

[4] = Stability in simulated gastric fluid (SGF); assay type: in vitro ADME; settings: for half-life: 2 μg/mL, read-out: SGF t1/2
Procedure: as §2

in vitro [5] = settings: for Observations: stability / GNX production in human plasma / half-life: plasma
Procedure: The plasma stability of exemplary compounds was tested using rat, mice, dog, and human plasma, according to the following protocol. For each test compound, samples at a final concentration of 2 μg/mL were prepared in blank plasma of selected species. All samples were incubated at 37° C. on a 150-RPM orbital shaker, and an aliquot was removed at pre-determined time points (0, 15, 30, 60, and 120 minutes). Samples were precipitated with three volumes of acetonitrile containing propranolol as internal standard, and centrifuged for 10 min at 2000 g before LC/MS/MS analysis of the supernatant solutions.

[6] = human liver microsomes 0.5 mg/mL, with NADPH, compound 0.5 μM, 37° C., read-out: Human Liver Microsomal Stability t1/2
[7] = human liver microsomes 0.5 mg/mL, with NADPH, compound 0.5 μM, read-out: Human Liver Microsomal Stability CLint (uL/min/mg liver) (converted)
[8] = human liver microsomes, no NADPH, compound 0.5 μM
[9] = rat liver microsomes 0.5 mg/mL, with NADPH, compound 0.5 μM, 37° C., read-out: Rat Liver Microsomal Stability t1/2
[10] = rat liver microsomes 0.5 mg/mL, with NADPH, compound 0.5 μM, read-out: Rat Liver Microsomal Stability CLint (uL/min/mg liver)
[11] = rat liver microsomes, no NADPH, compound 0.5 μM
[12] = SIF with pancreatin pH 6.8, 37° C., 60 min
[13] = SGF with pepsin pH 1.2, 37° C., 60 min
[14] = simulated gi fluid, SIF with pancreatin pH 6.8, 37° C.
[15] = simulated gi fluid, SGF with pepsin pH 1.2, 37° C.
[16] = simulated gi fluid, 1 h, pH 1.2

Structure (SMILES)	Comments: production of GNX (ganaxolone) in human liver microsomes (in vitro [1]; human liver microsomes)	half-life (in vitro [1]; [6])	microsomal CLint (in vitro [1]; [7])	Human Liver Microsomal Stability no NADPH, % remain 1 h (in vitro [1]; [8])	SIF (% remain, 60 min) [3, 12]	SGF (% remain, 60 min) [4, 13]	half-life (in vitro [5]; human)	further results
COCCN(C)CC(=O)O[C@]1(C)CC[C@@]2(C)[C@@H](CC[C@@H]3[C@@H]2CC[C@]2(C)[C@@H](C(C)=O)CC[C@@H]32)C1 [Compound 104]	GNX not produced in human or rat	12 min	116 µL/min/mg	98%	–	–	–	Comments: production of GNX (ganaxolone) in rat liver microsomes ([2]; rat liver microsomes): GNX not produced in human or rat; half-life [2, 9]: 7.41 min; microsomal CLint [2, 10]: 187 µL/min/mg; Rat Liver Microsomal Stability no NADPH, % remain 1 h [2, 11]: 99%
CCOC(=O)CNCC(=O)O[C@]1(C)CC[C@@]2(C)[C@@H](CC[C@@H]3[C@@H]2CC[C@]2(C)[C@@H](C(C)=O)CC[C@@H]32)C1 [Compound 103]	–	–	–	–	75.9%	98.4%	–	–
CC(=O)[C@H]1CC[C@H]2[C@@H]3CC[C@H]4C[C@](C)(OC(=O)COC(=O)CN5CCN(C)CC5)CC[C@]4(C)[C@H]3CC[C@]12C [Compound 208]	In human GNX not produced	37 min	37.4 µL/min/mg	72%	–	–	2.95 h	Human plasma t90 (in vitro [5]; human plasma, 2 μg/mL, 37° C.): 26.6 min; Observations: stability / GNX production in human plasma (in vitro [5]; human): No GNX produced
CC(=O)[C@H]1CC[C@H]2[C@@H]3CC[C@H]4C[C@](C)(OC(=O)COC(=O)OCCN(C)C)CC[C@]4(C)[C@H]3CC[C@]12C [Compound 220]	–	11.8 min	117 µL/min/mg	4%	–	–	0.352 h	Human plasma t90 (in vitro [5]; human plasma, 2 μg/mL, 37° C.): 3.18 min; Observations: stability / GNX production in human plasma (in vitro [5]; human): In human no GNX
COc1ccccc1N1CCN(CC(=O)O[C@]2(C)CC[C@@]3(C)[C@@H](CC[C@@H]4[C@@H]3CC[C@]3(C)[C@@H](C(C)=O)CC[C@@H]43)C2)CC1 [Compound 100]	GNX not produced in human or rat	11.9 min	116 µL/min/mg	100.0%	93.2%	90.8%	3.07 h	Comments: production of GNX (ganaxolone) in rat liver microsomes ([2]; rat liver microsomes): GNX not produced in human or rat; half-life [2, 9]: 12.7 min; microsomal CLint [2, 10]: 109 µL/min/mg; Rat Liver Microsomal Stability no NADPH, % remain 1 h [2, 11]: 98.0%; Human plasma t90 (in vitro [5]; human plasma, 2 μg/mL, 37° C.): 27.8 min; Observations: stability / GNX production in human plasma (in vitro [5]; human): Stable in human, GNX not; Rat plasma t90 (in vitro [5]; rat plasma, 2 μg/mL, 37° C.): 27.9 min; half-life (in vitro [5]; rat): 3.08 h
CC(=O)[C@H]1CC[C@H]2[C@@H]3CC[C@H]4C[C@](C)(OCOC(=O)CN5CCOCC5)CC[C@]4(C)[C@H]3CC[C@]12C [Compound 504]	–	2.5 min	554 µL/min/mg	0.8%	49.0%	0.4%	0.285 h	half-life [3, 14]: 88.4 min; half-life [4, 15]: 7.41 min; Human plasma t90 (in vitro [5]; human plasma, 2 μg/mL, 37° C.): 2.54 min
CC(=O)[C@H]1CC[C@H]2[C@@H]3CC[C@H]4C[C@](C)(OC(=O)CN5CCN(C)CC5)CC[C@]4(C)[C@H]3CC[C@]12C [Compound 102]	–	–	–	–	74.7%	56.3%	–	–
COCCOCCOCC(=O)OCO[C@]1(C)CC[C@@]2(C)[C@@H](CC[C@@H]3[C@@H]2CC[C@]2(C)[C@@H](C(C)=O)CC[C@@H]32)C1 [Compound 503]	–	5.65 min	245 µL/min/mg	11.6%	~90%	68%	< 0.5 h	half-life [3, 14]: ~30 min; half-life [4, 15]: 118 min
CC(=O)[C@H]1CC[C@H]2[C@@H]3CC[C@H]4C[C@](C)(OC(=O)CN5CCOCC5)CC[C@]4(C)[C@H]3CC[C@]12C [Compound 101]	GNX not produced in human or rat	–	–	–	–	–	26.9 h	SIF (% remain, 60 min) ([3]; simulated gi fluid, 1 h, pH 6.8): 90.2%; SGF (% remain, 60 min) [4, 16]: 90.5%; half-life (in vitro [1]; human, microsomes): 10.2 min; microsomal CLint (in vitro [1]; human, microsomes): 137 µL/min/mg; Human Liver Microsomal Stability no NADPH, % remain 1 h (in vitro [1]; human, microsomes): 99.0%; Comments: production of GNX (ganaxolone) in rat liver microsomes ([2]; rat liver microsomes): GNX not produced in human or rat; half-life ([2]; rat, microsomes): 6.8 min; microsomal CLint ([2]; rat, microsomes): 204 µL/min/mg; Rat Liver Microsomal Stability no NADPH, % remain 1 h ([2]; rat, microsomes): 100.0%; Human plasma t90 (in vitro [5]; human): 243.0 min; Observations: stability / GNX production in human plasma (in vitro [5]; human): Stable in human; Rat plasma t90 (in vitro [5]; rat): 342.0 min; half-life (in vitro [5]; rat): 37.8 h
CC(=O)[C@H]1CC[C@H]2[C@@H]3CC[C@H]4C[C@](C)(OC(=O)CNCC(=O)OC(C)(C)C)CC[C@]4(C)[C@H]3CC[C@]12C [Compound 109]	–	–	–	–	92.9%	96.2%	–	–
CC(=O)[C@H]1CC[C@H]2[C@@H]3CC[C@H]4C[C@](C)(OC(=O)CNC(=O)CN5CCOCC5)CC[C@]4(C)[C@H]3CC[C@]12C [Compound 112]	In human no GNX produced	46.7 min	29.6 µL/min/mg	98.6%	–	–	–	–
COC(=O)[C@@H](C)NCC(=O)O[C@]1(C)CC[C@@]2(C)[C@@H](CC[C@@H]3[C@@H]2CC[C@]2(C)[C@@H](C(C)=O)CC[C@@H]32)C1 [Compound 106]	GNX not produced in human	–	–	–	–	–	–	SGF (% remain, 60 min) [4, 16]: 2.80%; half-life (in vitro [1]; human, microsomes): 4.57 min; microsomal CLint (in vitro [1]; human, microsomes): 303 µL/min/mg; Human Liver Microsomal Stability no NADPH, % remain 1 h (in vitro [1]; human, microsomes): 3.05%
CC(=O)[C@H]1CC[C@H]2[C@@H]3CC[C@H]4C[C@](C)(OC(=O)CSCCN)CC[C@]4(C)[C@H]3CC[C@]12C [Compound 302]	In human GNX not produced	–	–	–	–	–	–	half-life (in vitro [1]; human, microsomes): 248 min; microsomal CLint (in vitro [1]; human, microsomes): 5.59 µL/min/mg; Human Liver Microsomal Stability no NADPH, % remain 1 h (in vitro [1]; human, microsomes): 99%
CC(=O)[C@H]1CC[C@H]2[C@@H]3CC[C@H]4C[C@](C)(OC(=O)COC(=O)CNC(=O)[C@H](C)N)CC[C@]4(C)[C@H]3CC[C@]12C [Compound 216]	–	192 min	7.22 µL/min/mg	80%	–	–	–	–
CC(=O)[C@H]1CC[C@H]2[C@@H]3CC[C@H]4C[C@](C)(OC(=O)CNCCO)CC[C@]4(C)[C@H]3CC[C@]12C [Compound 107]	GNX not produced in human or rat	–	21.4 µL/min/mg	99%	–	–	–	half-life (in vitro [1]; human, microsomes): 64.7 min; Comments: production of GNX (ganaxolone) in rat liver microsomes ([2]; rat liver microsomes): GNX not produced in human or rat; half-life [2, 9]: 21.9 min; microsomal CLint [2, 10]: 63 µL/min/mg; Rat Liver Microsomal Stability no NADPH, % remain 1 h [2, 11]: 98%
CNCC(=O)O[C@]1(C)CC[C@@]2(C)[C@@H](CC[C@@H]3[C@@H]2CC[C@]2(C)[C@@H](C(C)=O)CC[C@@H]32)C1 [Compound 114]	–	277 min	5 µL/min/mg	99.5%	–	–	–	–
CC(=O)[C@H]1CC[C@H]2[C@@H]3CC[C@H]4C[C@](C)(OC(=O)COC(=O)C(C)(C)OC(=O)CN(CCCO)CCCO)CC[C@]4(C)[C@H]3CC[C@]12C [Compound 231]	–	5.3 min	261 µL/min/mg	98%	–	–	–	–
